From US20110306570A1, “Na/K-Atpase Expression as an Indicator for the Treatment of Cancer” (UNIVERSITY OF TOLEDO, priority 2008, published 2011) come the findings set out here.

The test system of one assay is LLC-PK1 cells. Kind of assay: Cell growth curve (cell counting), LLC-PK1 cells. The note with it: 10 and 50 nM ouabain. Format: cell-based, pig. Here is the method: FIG. 1B: The above three cell lines were subcultured in 12-well plates (50,000 cells/well) and serum starved.
Cell growth curve and cell cycle measurement: Cells were sub-cultured in 12 well plates at 50,000/well in 1 ml culture medium for 24 h. […] At each indicated time point, three wells of control or treated cells were trypsinized and counted. For cell cycle measurement, cells were trypsinized and re-suspended in Citrate buffer (8.55% sucrose, 1.18% Na citrated, 5% DMSO, pH 7.6), and stained with propidium iodide (PI). The stained cells were then analyzed by Flow Cytometry.

The subject of assay [1] is Akt. Nature of the assay: Akt phosphorylation (pAkt) by Western blot, DU145 cells. In kind it is cell-based, human. The note with it: ouabain 15 min. An excerpt:
The pAkt was probed by Western blot.
On the technique in general: Immunoblotting shows a protein as a band on a membrane.

Assay [2] deals with Akt. Nature of the assay: Akt phosphorylation, PY-17 cells. In kind it is cell-based, pig. The note with it: ouabain, data not shown.
Assay [3] deals with Akt. Nature of the assay: Akt phosphorylation (pAkt) by Western blot, C2-9 cells. Format: cell-based, pig. The note with it: ouabain 15 min. Here is the method: The cell lysates were analyzed for pAkt.
Assay [4] addresses Na/K-ATPase in the plasma membrane (Homo sapiens, UniProt P05023). Kind of assay: 3H-ouabain binding after ouabain pre-treatment, DU145 cells. In kind it is cell-based. Also on record: endogenous in cells. The note with it: ouabain 72 h. The procedure:
The cells were washed and 3H-ouabain were performed as described herein. * p<0.05, ** p<0.01
To assess the functional consequence of these changes in α1 expression, the inventors measured the number of functional Na/K-ATPase in the plasma membrane.
Afterwards, cells were washed with serum-free medium and subjected to 3H-ouabain binding assay. Briefly, cells were incubated in K+-free Kreb's solution (NaCl 137 mM; KCl 0 mM; CaCl2 2.8 mM; NaH2PO4 0.6 mM; MgSO4 1.2 mM; dextrose; 10 mM; Tris 15 mM; pH7.4) for 15 min, and then exposed to 100 nM 3H-ouabain for 30 min at 37° C. At the end of incubation, the cells were washed 3 times with ice-cold K+-free Kreb's solution, solubilized in 0.1M NaOH-0.2% SDS, and counted in a scintillation counter for 3H-ouabain. […] Paralleled plates were used for counting cell numbers. 3H-ouabain binding data were calculated as binding sites per cell.

Assay [5] deals with T1, Na/K-ATPase α1 (Homo sapiens, UniProt P05023). Nature of the assay: Na/K-ATPase α1 endocytosis by confocal immunostaining, BT20 cells. Set-up: endogenous in cells; host or cells: BT20. Format: cell-based. The note with it: 10 nM ouabain. The procedure:
Na/K-ATPase al was immunostained and visualized using Leica confocal microscope. The red arrows indicate the endocytosed vesicles containing Na/K-ATPase α1.
The cells were fixed with ice-cold methanol for 15 min and blocked with Signal Enhancer from Invitrogen. Monoclonal anti-Na/K-ATPase α1 antibody was then incubated with the cells overnight at 4° C. After 3 washes, a secondary Alexa 488-conjugated anti-mouse antibody was added and incubated for 2 h at room temperature. The coverslip was washed, mounted and imaged using a Leica confocal microscope.

For assay [6], the target named is T1, Na/K-ATPase α1. Kind of assay: Na/K-ATPase α1 expression by Western blot, BT20 cells. Format: cell-based. Set-up: endogenous in cells; host or cells: BT20, DU145, MDA-MB-435s.

Turning to `C[C@@H]1O[C@@H](O[C@H]2C[C@@H](O)[C@]3(CO)[C@H]4[C@H](O)C[C@]5(C)[C@@H](C6=CC(=O)OC6)CC[C@]5(O)[C@@H]4CC[C@]3(O)C2)[C@H](O)[C@H](O)[C@H]1O` [ouabain], the “cell number as a function of time” value in the assay with LLC-PK1 cells is “increased the number of LLC-PK1 cells in a time-dependent manner”. Further, the Akt phosphorylation entry in the assay with Akt [1] is “failed to do so”; in the assay with Akt [2] it was “no effect on Akt phosphorylation”. In addition, the “Akt stimulation (pAkt)” value in the assay with Akt [3] is reported as “failed to stimulate Akt”. The “surface active Na/K-ATPase (3H-ouabain binding)” value in assay [4] is “significant decrease in surface active Na/K-ATPase”. Further, the “endocytosis of Na/K-ATPase α1 (α1-positive vesicles)” value on Na/K-ATPase α1 [5] was “many al-positive vesicles were accumulated”. Also, the “cellular amount of Na/K-ATPase α1” value at Na/K-ATPase α1 [6] (BT20 cells, ouabain 24 h or 72 h exposure) was “reduced the cellular amount of α1”. In addition, the “Na/K-ATPase α1 expression, 72 h versus 24 h” value on Na/K-ATPase α1 [6] (BT-20 cells, after 72 h of ouabain exposure) is “further reduction in al expression”.
